Experimental findings from patent US11439641B2, “Pyrimidine JAK inhibitors for the treatment of skin diseases” (THERAVANCE BIOPHARMA R&D IP, LLC, priority 2019, dated 2022) are described below.

In data set [1] the target is JAK3 (Homo sapiens (Human), UniProt P52333). The data set can be described thus: Biochemical JAK and Tyk2 Kinase Assays (LanthaScreen), JAK3. The conditions noted are these: 1.6 μM ATP (Km), pIC50 converted to pKi by Cheng-Prusoff.
Data set [2] relates to IL-22 suppressed Filaggrin expression in normal human epidermal keratinocytes. Put plainly: Recovery of IL-22 Suppressed Filaggrin in Normal Human Epidermal Keratinocytes. The data set is classed as cell-based. To be noted: IL-22 50 ng/mL, real-time PCR. The method, then:
Assay 7: Recovery of IL-22 Suppressed Filaggrin in Normal Human Epidermal Keratinocytes
IL-22 is known to inhibit the expression of terminal differentiation genes, such as Filaggrin. The recovery level of test compound for interleukin-22 (IL-22) suppressed Filaggrin expression was measured in the normal human epidermal keratinocytes (ATCC) using real-time PCR.
Primary epidermal keratinocytes were cultured in a 37° C., 5% CO2 humidified incubator in dermal cell basal medium (ATCC) supplemented with keratinocyte growth kit (ATCC) and 1× Pen/Strep (Life Technologies). Cells were seeded at 5,000 cells/well in BioCoat 96-well plates (Corning) with 100 μl and incubated at 37° C., 5% CO2 for 3 to 4 days till 100% confluency. Then, the medium was removed and replaced with 1504 of medium containing does-response of test compounds. Compounds were serially diluted in DMSO and then diluted another 1000-fold in media to bring the final DMSO concentration to 0.1%. On day 1 of the assay, cells were incubated with test compounds at 37° C. for 1 h, and followed by the addition of followed by the addition of IL-22 (R&D Systems; final concentration 50 ng/mL) in pre-warmed media (50 μL) for 4 days. The medium with test compounds and IL-22 was changed once on day 3. On day 5, cells were washed with 1×PBS (Gibco) and lysed with 50 μl of Lysis Buffer containing 0.5 μl DnaseI from TaqMan® Gene Expression Cells-to-Ct™ Kit (Life Technologies). After incubation at room temperature (RT) for 5 minutes, 5 μl of Stop solution from the kit was added and then incubated at RT for 2 minutes. 11.25 μl of lysate, 12.5 μl of 2×RT buffer and 1.25 μl 20×RT enzyme mix from the kit were mixed. The reverse transcription reaction was carried out by incubating the mixture at 37° C. for 60 minutes and then 95° C. for 5 minutes to generate cDNA. To assemble the PCR cocktail, each reaction contained 10 μl of 2× TaqMan® Gene Expression Mater Mix, 1 μl of 2× TaqMan® Filaggrin Gene Expression Assay (Life Technologies), 1 μl of 2× TaqMan® UBC Gene Expression Assay (Life Technologies), 4 μl of nuclease-free water and 4 μl of cDNA. PCR reactions were done on StepOnePlus™ (Life Technologies) with cycling conditions of 50° C. for 2 minutes, 95° C. for 10 minutes followed by 40 cycles of 95° C. for 15 seconds and 60° C. for 1 minute. Fluorescence signals were captured after each cycle. Comparative CT method was used to quantify gene expression with cells without IL-22 and test compounds as baseline control.

The target of data set [3] is Tyk2 (Homo sapiens (Human), UniProt P29597). The data set can be described thus: Biochemical JAK and Tyk2 Kinase Assays (LanthaScreen), Tyk2. To be noted: 10 μM ATP (Km), pIC50 converted to pKi by Cheng-Prusoff.
Tyk2, sequence (P29597 whole entry): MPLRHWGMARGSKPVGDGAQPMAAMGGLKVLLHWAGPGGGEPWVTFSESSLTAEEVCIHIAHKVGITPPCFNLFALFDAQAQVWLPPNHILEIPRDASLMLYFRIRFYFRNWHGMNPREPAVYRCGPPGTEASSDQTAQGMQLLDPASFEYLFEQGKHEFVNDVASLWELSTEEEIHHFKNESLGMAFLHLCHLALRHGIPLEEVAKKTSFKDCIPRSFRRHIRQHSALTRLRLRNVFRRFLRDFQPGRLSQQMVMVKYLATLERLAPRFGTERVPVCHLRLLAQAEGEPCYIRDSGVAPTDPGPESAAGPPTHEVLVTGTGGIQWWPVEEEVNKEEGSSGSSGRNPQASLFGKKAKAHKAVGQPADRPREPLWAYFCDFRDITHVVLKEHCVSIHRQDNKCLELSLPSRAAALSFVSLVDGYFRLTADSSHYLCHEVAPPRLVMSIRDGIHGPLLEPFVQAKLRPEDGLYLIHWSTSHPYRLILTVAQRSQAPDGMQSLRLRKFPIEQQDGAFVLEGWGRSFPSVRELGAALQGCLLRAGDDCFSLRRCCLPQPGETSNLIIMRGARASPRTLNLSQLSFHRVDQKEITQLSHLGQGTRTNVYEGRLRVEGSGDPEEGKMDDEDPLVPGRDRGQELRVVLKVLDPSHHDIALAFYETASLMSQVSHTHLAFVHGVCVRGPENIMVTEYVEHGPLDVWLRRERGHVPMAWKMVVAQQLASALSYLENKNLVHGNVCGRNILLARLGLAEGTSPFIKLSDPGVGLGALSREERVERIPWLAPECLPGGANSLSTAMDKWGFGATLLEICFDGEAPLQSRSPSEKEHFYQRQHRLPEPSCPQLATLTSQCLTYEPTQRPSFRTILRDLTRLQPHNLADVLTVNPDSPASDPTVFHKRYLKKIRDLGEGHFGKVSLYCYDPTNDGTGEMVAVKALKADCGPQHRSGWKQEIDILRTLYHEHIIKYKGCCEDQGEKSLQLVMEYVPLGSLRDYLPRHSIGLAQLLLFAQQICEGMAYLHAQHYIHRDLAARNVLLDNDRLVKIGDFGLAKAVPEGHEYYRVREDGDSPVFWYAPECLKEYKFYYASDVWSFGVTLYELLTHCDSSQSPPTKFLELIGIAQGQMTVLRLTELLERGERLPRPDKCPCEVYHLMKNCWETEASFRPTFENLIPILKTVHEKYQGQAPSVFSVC
Data set [4] deals with JAK2 (Homo sapiens (Human), UniProt O60674). The data set can be described thus: Biochemical JAK and Tyk2 Kinase Assays (LanthaScreen), JAK2. The conditions noted are these: 3 μM ATP (Km); pIC50 converted to pKi by Cheng-Prusoff.
JAK2, sequence (O60674 whole entry): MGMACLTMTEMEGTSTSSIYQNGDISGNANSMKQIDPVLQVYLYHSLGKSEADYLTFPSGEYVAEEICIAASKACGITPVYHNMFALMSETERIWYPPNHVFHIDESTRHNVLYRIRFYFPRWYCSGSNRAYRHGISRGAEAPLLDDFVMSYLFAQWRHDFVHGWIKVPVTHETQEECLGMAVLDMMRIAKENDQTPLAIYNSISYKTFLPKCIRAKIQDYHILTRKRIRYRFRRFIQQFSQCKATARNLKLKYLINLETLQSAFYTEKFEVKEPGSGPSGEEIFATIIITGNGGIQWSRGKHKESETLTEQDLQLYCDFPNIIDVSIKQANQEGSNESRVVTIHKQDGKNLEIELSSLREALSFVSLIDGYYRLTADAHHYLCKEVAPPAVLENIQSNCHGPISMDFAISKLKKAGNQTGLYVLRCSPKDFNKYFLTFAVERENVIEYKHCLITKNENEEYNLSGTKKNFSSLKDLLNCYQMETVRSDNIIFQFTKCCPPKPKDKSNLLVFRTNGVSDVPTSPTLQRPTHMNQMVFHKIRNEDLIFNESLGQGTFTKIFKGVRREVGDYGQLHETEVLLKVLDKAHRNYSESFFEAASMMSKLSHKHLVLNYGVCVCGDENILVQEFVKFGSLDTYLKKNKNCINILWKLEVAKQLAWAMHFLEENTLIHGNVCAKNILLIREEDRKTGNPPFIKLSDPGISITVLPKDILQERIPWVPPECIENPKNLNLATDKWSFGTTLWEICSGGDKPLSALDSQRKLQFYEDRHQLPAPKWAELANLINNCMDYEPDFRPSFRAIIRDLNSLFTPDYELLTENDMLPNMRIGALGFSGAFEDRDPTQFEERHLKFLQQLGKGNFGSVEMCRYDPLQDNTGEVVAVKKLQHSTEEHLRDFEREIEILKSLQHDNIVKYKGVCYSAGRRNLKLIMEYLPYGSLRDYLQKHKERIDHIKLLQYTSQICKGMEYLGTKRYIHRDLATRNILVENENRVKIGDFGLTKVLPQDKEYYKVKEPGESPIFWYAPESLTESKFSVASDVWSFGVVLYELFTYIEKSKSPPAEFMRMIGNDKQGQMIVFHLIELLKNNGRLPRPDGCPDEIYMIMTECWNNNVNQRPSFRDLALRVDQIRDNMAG
Data set [5] in a line: Human Liver Microsome Assay. The conditions noted are these: human liver microsomes 0.1 mg/mL, 0.1 μM compound, 1 mM NADPH, 37° C.
Experimental: Assay 4: Human Liver Microsome Assay
The objective of this assay was to assess the metabolic stability of test compounds in an in vitro human liver sub-fraction. Human liver microsomes obtained from Bioreclamation-IVT (Baltimore, Md.) were thawed on ice and diluted into 0.1 M potassium phosphate buffer pH 7.4 to yield final incubation protein concentrations of 0.1 mg/mL. Test compounds (10 mM) were diluted into NADPH cofactor to yield final incubation concentrations of 0.1 μM test compound and 1 mM NADPH. Incubations were conducted at 37° C. temperature and test aliquots were taken at time points 0, 5, 8, 15, 30 and 45 minutes. Each aliquot was crashed into water with 3% formic acid and 1 μM internal standard. The resulting samples were injected onto an LC-MS/MS system for analysis.
For each incubation, the peak area of the analytes in each t0 aliquot was set to 100% and the peak areas from subsequent time point aliquots were converted to percentage of parent compound remaining relative to t0. The percentage of parent compound remaining was converted to natural log scale and plotted versus time in minutes. A linear regression analysis was performed for the initial decline of the parent disappearance profile and a formula for the best-fit line determined. The slope of the resultant line was normalized to protein concentration in mg/mL protein or number of cells/mL and CLint was calculated as follows for liver microsomes: CLint(μL·min^−1·mg^−1)=(Slope×1000)/[protein,mg/mL]
CLint values from 9-49 μl/min/mg represent moderate clearance (i.e. 30-70% of hepatic blood flow in human) and values >50 μl/min/mg represent high hepatic clearance (i.e. >70% of hepatic blood flow in human).
Data set [6] concerns the target JAK1 (Homo sapiens (Human), UniProt P23458). The data set can be described thus: Biochemical JAK and Tyk2 Kinase Assays (LanthaScreen), JAK1. To be noted: 25 μM ATP (Km), pIC50 converted to pKi by Cheng-Prusoff.

Structures are written as SMILES.

JAK3, sequence (P52333 whole entry): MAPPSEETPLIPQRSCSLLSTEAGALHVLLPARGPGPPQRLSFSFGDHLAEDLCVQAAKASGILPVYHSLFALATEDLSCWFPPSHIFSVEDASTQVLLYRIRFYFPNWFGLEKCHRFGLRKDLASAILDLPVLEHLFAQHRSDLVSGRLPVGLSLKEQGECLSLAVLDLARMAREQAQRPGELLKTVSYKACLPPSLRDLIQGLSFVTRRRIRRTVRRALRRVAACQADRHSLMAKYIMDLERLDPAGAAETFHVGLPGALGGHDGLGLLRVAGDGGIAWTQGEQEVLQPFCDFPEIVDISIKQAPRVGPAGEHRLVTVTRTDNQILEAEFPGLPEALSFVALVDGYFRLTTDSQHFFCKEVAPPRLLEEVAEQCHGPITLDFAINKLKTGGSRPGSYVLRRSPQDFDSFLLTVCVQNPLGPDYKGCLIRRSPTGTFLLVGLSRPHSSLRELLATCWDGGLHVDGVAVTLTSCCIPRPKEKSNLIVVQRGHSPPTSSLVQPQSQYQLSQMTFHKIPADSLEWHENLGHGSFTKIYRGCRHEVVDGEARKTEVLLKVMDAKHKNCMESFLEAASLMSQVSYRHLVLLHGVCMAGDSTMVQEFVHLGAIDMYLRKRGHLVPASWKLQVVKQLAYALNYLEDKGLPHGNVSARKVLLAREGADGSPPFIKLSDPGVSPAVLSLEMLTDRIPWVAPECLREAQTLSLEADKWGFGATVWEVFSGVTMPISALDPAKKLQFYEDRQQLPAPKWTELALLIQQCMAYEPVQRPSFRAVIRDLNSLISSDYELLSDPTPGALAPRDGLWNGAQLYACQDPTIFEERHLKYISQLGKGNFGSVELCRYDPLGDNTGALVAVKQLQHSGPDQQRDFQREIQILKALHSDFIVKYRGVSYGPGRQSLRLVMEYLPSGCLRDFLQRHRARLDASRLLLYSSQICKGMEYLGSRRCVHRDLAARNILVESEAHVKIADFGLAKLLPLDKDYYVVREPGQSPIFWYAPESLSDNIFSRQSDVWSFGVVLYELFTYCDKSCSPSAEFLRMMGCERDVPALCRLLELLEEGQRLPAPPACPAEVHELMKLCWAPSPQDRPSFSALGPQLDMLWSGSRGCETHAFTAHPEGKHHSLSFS
JAK1, sequence (P23458 whole entry): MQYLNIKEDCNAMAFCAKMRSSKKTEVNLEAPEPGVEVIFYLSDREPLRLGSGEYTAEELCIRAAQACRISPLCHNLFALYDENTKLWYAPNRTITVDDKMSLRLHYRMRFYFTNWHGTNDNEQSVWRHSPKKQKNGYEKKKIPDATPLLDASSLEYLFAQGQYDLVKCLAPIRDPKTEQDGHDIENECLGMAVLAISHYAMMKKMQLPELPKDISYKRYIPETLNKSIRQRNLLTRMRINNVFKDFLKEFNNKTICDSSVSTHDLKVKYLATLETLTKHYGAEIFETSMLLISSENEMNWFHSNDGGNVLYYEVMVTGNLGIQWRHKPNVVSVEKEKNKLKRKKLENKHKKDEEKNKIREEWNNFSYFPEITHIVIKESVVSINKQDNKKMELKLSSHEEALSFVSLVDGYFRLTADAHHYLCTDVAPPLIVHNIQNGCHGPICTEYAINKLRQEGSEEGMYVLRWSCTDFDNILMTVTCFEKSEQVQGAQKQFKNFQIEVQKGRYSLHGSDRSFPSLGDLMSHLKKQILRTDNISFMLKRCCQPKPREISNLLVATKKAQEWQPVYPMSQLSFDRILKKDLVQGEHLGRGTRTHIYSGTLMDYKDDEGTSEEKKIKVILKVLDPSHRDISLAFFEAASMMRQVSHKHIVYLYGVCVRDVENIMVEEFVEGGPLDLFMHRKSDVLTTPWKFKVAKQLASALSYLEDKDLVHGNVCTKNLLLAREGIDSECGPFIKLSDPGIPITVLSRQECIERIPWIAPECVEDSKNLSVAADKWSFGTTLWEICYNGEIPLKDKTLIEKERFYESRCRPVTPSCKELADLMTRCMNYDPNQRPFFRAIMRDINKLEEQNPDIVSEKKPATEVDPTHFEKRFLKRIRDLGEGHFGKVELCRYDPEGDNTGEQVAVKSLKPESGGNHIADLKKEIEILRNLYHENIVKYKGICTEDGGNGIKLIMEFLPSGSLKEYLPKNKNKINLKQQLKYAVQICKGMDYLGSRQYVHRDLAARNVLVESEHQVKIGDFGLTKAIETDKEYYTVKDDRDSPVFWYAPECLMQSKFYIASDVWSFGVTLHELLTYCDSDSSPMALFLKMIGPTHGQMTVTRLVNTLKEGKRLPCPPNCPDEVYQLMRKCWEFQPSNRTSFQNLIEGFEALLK

Consider `CCS(=O)(=O)N1[C@@H]2CCC[C@H]1C[C@H](N(C)c1nc(CO[C@H]3CCOC3)c(F)c(Nc3cc(C)[nH]n3)n1)C2` [Compound 42, N2-((1R,3s,5S)-9-(ethylsulfonyl)-9-azabicyclo[3.3.1]nonan-3-yl)-5-fluoro-N2-methyl-N4-(5-methyl-1H-pyrazol-3-yl)-6-((((S)-tetrahydrofuran-3-yl)oxy)methyl)pyrimidine-2,4-diamine], for which, in data set [1], the “JAK 3 (pKi)” value was “B (B represents a pKi value between 9 and 10 (Ki between 1 nM and 0.1 nM))”. Moreover, the “concentration at which recovery of IL-22 suppressed Filaggrin expression was observed” value (“concentration at which recovery” for short) in data set [2] is under 1 µM. In addition, in data set [3], the “Tyk 2 (pKi)” value is “A (A represents a pKi value ≥10 (Ki≤0.1 nM))”. Also, the “JAK 2 (pKi)” value in data set [4] is given as “A (A represents a pKi value ≥10 (Ki≤0.1 nM))”. Also, the “HLM Clin μL/min/mg” value in data set [5] was “B (B represents a Clint value between 500 and 1250)”. For the same compound, the “JAK 1 (pKi)” value in data set [6] was “B (B represents a pKi value between 9 and 10 (Ki between 1 nM and 0.1 nM))”.

For the compound `COC(=O)N1[C@@H]2CCC[C@H]1C[C@H](N(C)c1nc(Nc3cc(C)[nH]n3)cc(O[C@@H]3CCOC3)n1)C2` [Compound 23], the Ki in data set [1] (read-out: JAK 3 (pKi) (converted)), in data set [3] (read-out: Tyk 2 (pKi) (converted)) and in data set [6] (read-out: JAK 1 (pKi) (converted)) was 0.1 to 1 nM in each case. Further, the “concentration at which recovery” value in data set [2] was under 1 µM. In addition, the “JAK 2 (pKi)” value in data set [4] is reported as “A (A represents a pKi value ≥10 (Ki≤0.1 nM))”.

For `CCS(=O)(=O)N1[C@@H]2CCC[C@H]1C[C@H](N(C)c1nc(Nc3cc(C)[nH]n3)cc(C3CCCO3)n1)C2` (stereo partly drawn) [Compound 8, N^2-((1R,3s,5S)-9-(ethylsulfonyl)-9-azabicyclo[3.3.1]nonan-3-yl)-N2-methyl-N4-(5-methyl-1H-pyrazol-3-yl)-6-(tetrahydrofuran-2-yl)pyrimidine-2,4-diamine], the “JAK 3 (pKi)” value in data set [1] was “B (B represents a pKi value between 9 and 10 (Ki between 1 nM and 0.1 nM))”. In addition, the “concentration at which recovery” value in data set [2] is under 1 µM. Also, the “Tyk 2 (pKi)” value in data set [3] is reported as “A (A represents a pKi value ≥10 (Ki≤0.1 nM))”. The “JAK 2 (pKi)” value in data set [4] is listed as “A (A represents a pKi value ≥10 (Ki≤0.1 nM))”. The “HLM Clin μL/min/mg” value in data set [5] was “A (A represents a Clint value between 1250 and 3000)”. Besides, the “JAK 1 (pKi)” value in data set [6] is recorded as “A (A represents a pKi value ≥10 (Ki≤0.1 nM))”.

Take `CCS(=O)(=O)N1[C@@H]2CCC[C@H]1C[C@H](N(C)c1nc(CO[C@@H]3CCOC3)c(F)c(Nc3cc(C)[nH]n3)n1)C2` [Compound 43, N2-((1R,3s,5S)-9-(ethylsulfonyl)-9-azabicyclo[3.3.1]nonan-3-yl)-5-fluoro-N2-methyl-N4-(5-methyl-1H-pyrazol-3-yl)-6-((((R)-tetrahydrofuran-3-yl)oxy)methyl)pyrimidine-2,4-diamine]: in data set [1], the “JAK 3 (pKi)” value is “B (B represents a pKi value between 9 and 10 (Ki between 1 nM and 0.1 nM))”. In addition, the “concentration at which recovery” value in data set [2] is under 1 µM. Also, the “Tyk 2 (pKi)” value in data set [3] is “A (A represents a pKi value ≥10 (Ki≤0.1 nM))”. Besides, in data set [4], the “JAK 2 (pKi)” value is given as “A (A represents a pKi value ≥10 (Ki≤0.1 nM))”. In data set [5], the “HLM Clin μL/min/mg” value is “C (C represents a Clint value between 130 and 500)”. For the same compound, in data set [6], the “JAK 1 (pKi)” value was “B (B represents a pKi value between 9 and 10 (Ki between 1 nM and 0.1 nM))”.

Take `CCS(=O)(=O)N1[C@@H]2CCC[C@H]1C[C@H](N(C)c1nc(COC3COC3)c(F)c(Nc3cc(C)[nH]n3)n1)C2` [Compound 41, N2-((1R,3s,5S)-9-(ethylsulfonyl)-9-azabicyclo[3.3.1]nonan-3-yl)-5-fluoro-N2-methyl-N4-(5-methyl-1H-pyrazol-3-yl)-6-((oxetan-3-yloxy)methyl)pyrimidine-2,4-diamine]: the “JAK 3 (pKi)” value in data set [1] is “B (B represents a pKi value between 9 and 10 (Ki between 1 nM and 0.1 nM))”. Moreover, the “concentration at which recovery” value in data set [2] is under 1 µM. The “Tyk 2 (pKi)” value in data set [3] is “A (A represents a pKi value ≥10 (Ki≤0.1 nM))”. Further, the “JAK 2 (pKi)” value in data set [4] is on record as “A (A represents a pKi value ≥10 (Ki≤0.1 nM))”. Moreover, the “HLM Clin μL/min/mg” value in data set [5] was “C (C represents a Clint value between 130 and 500)”. The “JAK 1 (pKi)” value in data set [6] was “A (A represents a pKi value ≥10 (Ki≤0.1 nM))”.
